PubChem BioAssay (NCI)
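Dose response: 5 concentrations. Exposure: 48 h. Format: 96-well plates. Endpoint: linear interpolation; highest concentration if not reached. GI50: concentration for 50% inhibition of growth. At the TGI there is no net growth.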

Tests used:
Assay in all cases: NCI anticancer screen, dose series, 48 h
LOX IMVI melanoma = test system: LOX IMVI melanoma
M14 melanoma = test system: M14 melanoma
MALME-3M melanoma = test system: MALME-3M melanoma
NCI/ADR-RES ovarian = test system: NCI/ADR-RES ovarian
SF-268 CNS = test system: SF-268 CNS
U251 CNS = test system: U251 CNS
K-562 leukemia = test system: K-562 leukemia
COLO 205 colon = test system: COLO 205 colon
SNB-19 CNS = test system: SNB-19 CNS
SK-OV-3 ovarian = test system: SK-OV-3 ovarian
HCT-116 colon = test system: HCT-116 colon
IGROV1 ovarian = test system: IGROV1 ovarian
DU-145 prostate = test system: DU-145 prostate
NCI-H226 lung = test system: NCI-H226 lung
UO-31 renal = test system: UO-31 renal
786-0 renal = test system: 786-0 renal
NCI-H460 lung = test system: NCI-H460 lung
CAKI-1 renal = test system: CAKI-1 renal
HOP-92 NSCLC = test system: HOP-92 NSCLC
MCF7 breast = test system: MCF7 breast
MDA-MB-231 breast = test system: MDA-MB-231 breast
SK-MEL-5 melanoma = test system: SK-MEL-5 melanoma
SK-MEL-28 melanoma = test system: SK-MEL-28 melanoma
HT29 colon = test system: HT29 colon
HOP-62 NSCLC = test system: HOP-62 NSCLC
OVCAR-5 ovarian = test system: OVCAR-5 ovarian
HCT-15 colon = test system: HCT-15 colon
KM12 colon = test system: KM12 colon

`O=C1C(Br)=CC2C1C1C3CCC3C2(Br)C12OCCO2` (stereo not given) showed a GI50 (LOX IMVI melanoma) of 1.21 µM, a TGI (LOX IMVI melanoma) of 3.74 µM and a GI50 (M14 melanoma) of 4.45 µM. The TGI (M14 melanoma) was 19.9 µM, the GI50 (MALME-3M melanoma) was 4.45 µM and the TGI (MALME-3M melanoma) was 21.3 µM. For the same molecule, the GI50 (NCI/ADR-RES ovarian) was 4.84 µM, the TGI (NCI/ADR-RES ovarian) was 41 µM and the GI50 (SF-268 CNS) was 2.5 µM. For the same molecule, the TGI (SF-268 CNS) was 15.5 µM, the GI50 (U251 CNS) was 2.88 µM and the TGI (U251 CNS) was 13 µM. The GI50 (K-562 leukemia) was 2.98 µM, the TGI (K-562 leukemia) was 13 µM and the GI50 (COLO 205 colon) was 3.35 µM. The TGI (COLO 205 colon) was 10.9 µM, the GI50 (SNB-19 CNS) was 9.65 µM and the TGI (SNB-19 CNS) was 23 µM. It also gave a GI50 (SK-OV-3 ovarian) of 4.3 µM, a TGI (SK-OV-3 ovarian) of 15.3 µM and a GI50 (HCT-116 colon) of 2.08 µM. For the same molecule, the TGI (HCT-116 colon) was 10.3 µM, the GI50 (IGROV1 ovarian) was 2.89 µM and the TGI (IGROV1 ovarian) was 12.7 µM. The GI50 (DU-145 prostate) was 3.22 µM, the TGI (DU-145 prostate) was 13.8 µM and the GI50 (NCI-H226 lung) was 3.55 µM. For the same molecule, the TGI (NCI-H226 lung) was 20.4 µM, the GI50 (UO-31 renal) was 3.4 µM and the TGI (UO-31 renal) was 13.4 µM. The GI50 (786-0 renal) was 4.32 µM, the TGI (786-0 renal) was 16 µM and the GI50 (NCI-H460 lung) was 2.08 µM. For the same molecule, the TGI (NCI-H460 lung) was 10.2 µM, the GI50 (CAKI-1 renal) was 4.1 µM and the TGI (CAKI-1 renal) was 17.6 µM. It also gave a GI50 (HOP-92 NSCLC) of 5.08 µM, a TGI (HOP-92 NSCLC) of 21.8 µM and a GI50 (MCF7 breast) of 1.98 µM. It also gave a TGI (MCF7 breast) of 12.8 µM, a GI50 (MDA-MB-231 breast) of 1.84 µM and a TGI (MDA-MB-231 breast) of 11.4 µM. For the same molecule, the GI50 (SK-MEL-5 melanoma) was 3.19 µM, the TGI (SK-MEL-5 melanoma) was 14.4 µM and the GI50 (SK-MEL-28 melanoma) was 3.98 µM. For the same molecule, the TGI (SK-MEL-28 melanoma) was 18 µM, the GI50 (HT29 colon) was 2.75 µM and the TGI (HT29 colon) was 10.3 µM. It also gave a GI50 (HOP-62 NSCLC) of 4.25 µM, a TGI (HOP-62 NSCLC) of 16.5 µM and a GI50 (OVCAR-5 ovarian) of 2.47 µM. The TGI (OVCAR-5 ovarian) was 8.91 µM, the GI50 (HCT-15 colon) was 1.22 µM and the TGI (HCT-15 colon) was 3.49 µM. For the same molecule, the GI50 (KM12 colon) was 2.39 µM.
